Key:
Type in all cases: functional
MOLT-4 = test: Growth inhibition of human MOLT4 cells assessed as cell growth at 10 uM by sulforhodamine B assay; details: read-out: Activity
SF-539 = test: Growth inhibition of human SF539 cells assessed as cell growth at 10 uM by sulforhodamine B assay; details: read-out: Activity
NCI-H460 [1] = test: Growth inhibition of human NCI-H460 cells assessed as cell growth at 10 uM by sulforhodamine B assay; details: read-out: Activity
MDA-MB-231 = test: Growth inhibition of human MDA-MB-231 cells assessed as cell growth at 10 uM by sulforhodamine B assay; details: read-out: Activity
RPMI-8226 [2] = test: Growth inhibition of human RPMI8226 cells assessed as growth inhibition at 10 uM by sulforhodamine B assay; details: read-out: GI
RXF 393 [3] = test: Growth inhibition of human RXF393 cells assessed as growth inhibition at 10 uM by sulforhodamine B assay; details: read-out: GI
SK-MEL-5 [4] = test: Growth inhibition of human SK-MEL-5 cells assessed as cell growth at 10 uM by sulforhodamine B assay; details: read-out: Activity
ACHN = test: Growth inhibition of human ACHN cells assessed as cell growth at 10 uM by sulforhodamine B assay; details: read-out: Activity
[5] = Growth inhibition of human Hs 578T cells assessed as growth inhibition at 10 uM by sulforhodamine B assay; details: read-out: GI
UO-31 = test: Growth inhibition of human UO31 cells assessed as cell growth at 10 uM by sulforhodamine B assay; details: read-out: Activity
M14 [6] = test: Growth inhibition of human M14 cells assessed as growth inhibition at 10 uM by sulforhodamine B assay; details: read-out: GI
T47D = test: Growth inhibition of human T47D cells assessed as growth inhibition at 10 uM by sulforhodamine B assay; details: read-out: GI
SW-620 = test: Growth inhibition of human SW620 cells assessed as growth inhibition at 10 uM by sulforhodamine B assay; details: read-out: GI
NCI-H322M = test: Growth inhibition of human NCI-H322M cells assessed as growth inhibition at 10 uM by sulforhodamine B assay; details: read-out: GI
M14 [7] = test: Growth inhibition of human M14 cells assessed as cell growth at 10 uM by sulforhodamine B assay; details: read-out: Activity
CCRF-CEM = test: Growth inhibition of human CCRF-CEM cells assessed as growth inhibition at 10 uM by sulforhodamine B assay; details: read-out: GI
SF-268 = test: Growth inhibition of human SF268 cells assessed as cell growth at 10 uM by sulforhodamine B assay; details: read-out: Activity
Malme-3M [8] = test: Growth inhibition of human MALME-3M cells assessed as cell growth at 10 uM by sulforhodamine B assay; details: read-out: Activity
SK-MEL-5 [9] = test: Growth inhibition of human SK-MEL-5 cells assessed as growth inhibition at 10 uM by sulforhodamine B assay; details: read-out: GI
HCT-116 = test: Growth inhibition of human HCT116 cells assessed as cell growth at 10 uM by sulforhodamine B assay; details: read-out: Activity
RXF 393 [10] = test: Growth inhibition of human RXF393 cells assessed as cell growth at 10 uM by sulforhodamine B assay; details: read-out: Activity
SF-295 = test: Growth inhibition of human SF295 cells assessed as cell growth at 10 uM by sulforhodamine B assay; details: read-out: Activity
OVCAR-3 = test: Growth inhibition of human OVCAR3 cells assessed as growth inhibition at 10 uM by sulforhodamine B assay; details: read-out: GI
K562 = test: Growth inhibition of human K562 cells assessed as cell growth at 10 uM by sulforhodamine B assay; details: read-out: Activity
HOP-92 = test: Growth inhibition of human HOP92 cells assessed as cell growth at 10 uM by sulforhodamine B assay; details: read-out: Activity
SNB-75 [11] = test: Growth inhibition of human SNB75 cells assessed as growth inhibition at 10 uM by sulforhodamine B assay; details: read-out: GI
HL-60(TB) = test: Growth inhibition of human HL-60(TB) cells assessed as growth inhibition at 10 uM by sulforhodamine B assay; details: read-out: GI
[12] = Growth inhibition of human EKVX cells assessed as cell growth at 10 uM by sulforhodamine B assay; details: read-out: Activity
MDA-MB-435 = test: Growth inhibition of human MDA-MB-435 cells assessed as cell growth at 10 uM by sulforhodamine B assay; details: read-out: Activity
[13] = Growth inhibition of human NCI-ADR-RES cells assessed as cell growth at 10 uM by sulforhodamine B assay; details: read-out: Activity
HCT-15 = test: Growth inhibition of human HCT15 cells assessed as growth inhibition at 10 uM by sulforhodamine B assay; details: read-out: GI
SNB-75 [14] = test: Growth inhibition of human SNB75 cells assessed as cell growth at 10 uM by sulforhodamine B assay; details: read-out: Activity
COLO 205 = test: Growth inhibition of human COLO205 cells assessed as growth inhibition at 10 uM by sulforhodamine B assay; details: read-out: GI
SK-MEL-2 = test: Growth inhibition of human SK-MEL-2 cells assessed as growth inhibition at 10 uM by sulforhodamine B assay; details: read-out: GI
LOX IMVI [15] = test: Growth inhibition of human LOXIMVI cells assessed as cell growth at 10 uM by sulforhodamine B assay; details: read-out: Activity
A498 = test: Growth inhibition of human A498 cells assessed as cell growth at 10 uM by sulforhodamine B assay; details: read-out: Activity
NCI-H460 [16] = test: Growth inhibition of human NCI-H460 cells assessed as growth inhibition at 10 uM by sulforhodamine B assay; details: read-out: GI
SR = test: Growth inhibition of human SR cells assessed as growth inhibition at 10 uM by sulforhodamine B assay; details: read-out: GI
[17] = Growth inhibition of human HCC2998 cells assessed as cell growth at 10 uM by sulforhodamine B assay; details: HCC 2998, read-out: Activity
Malme-3M [18] = test: Growth inhibition of human MALME-3M cells assessed as growth inhibition at 10 uM by sulforhodamine B assay; details: read-out: GI
IGROV-1 = test: Growth inhibition of human IGROV1 cells assessed as cell growth at 10 uM by sulforhodamine B assay; details: read-out: Activity
OVCAR-4 = test: Growth inhibition of human OVCAR4 cells assessed as growth inhibition at 10 uM by sulforhodamine B assay; details: read-out: GI
TK-10 = test: Growth inhibition of human TK10 cells assessed as growth inhibition at 10 uM by sulforhodamine B assay; details: read-out: GI
LOX IMVI [19] = test: Growth inhibition of human LOXIMVI cells assessed as growth inhibition at 10 uM by sulforhodamine B assay; details: read-out: GI
HOP-62 = test: Growth inhibition of human HOP62 cells assessed as cell growth at 10 uM by sulforhodamine B assay; details: read-out: Activity
UACC-62 = test: Growth inhibition of human UACC62 cells assessed as cell growth at 10 uM by sulforhodamine B assay; details: read-out: Activity
OVCAR-5 = test: Growth inhibition of human OVCAR5 cells assessed as growth inhibition at 10 uM by sulforhodamine B assay; details: read-out: GI
PC-3 = test: Growth inhibition of human PC3 cells assessed as cell growth at 10 uM by sulforhodamine B assay; details: read-out: Activity
RPMI-8226 [20] = test: Growth inhibition of human RPMI8226 cells assessed as cell growth at 10 uM by sulforhodamine B assay; details: read-out: Activity

## CC(C)=CC(=O)O[C@@H]1CC(C)(C)C[C@H]2C3=CC[C@@H]4[C@@]5(C)CC[C@H](O)C(C)(C)[C@@H]5CC[C@@]4(C)[C@]3(C)CC[C@@]12C(=O)O [Reduced Lantadene B]
MOLT-4
  growth at 10 µM: 49.6%
SF-539
  growth at 10 µM: 54.7%
NCI-H460 [1]
  growth at 10 µM: 50.3%
MDA-MB-231
  growth at 10 µM: 81.3%
RPMI-8226 [2]
  inhibition of growth at 10 µM: 76.3%
RXF 393 [3]
  inhibition of growth at 10 µM: 14.8%
SK-MEL-5 [4]
  growth at 10 µM: 61.5%
ACHN
  growth at 10 µM: 46.3%
[5]
  inhibition of growth at 10 µM: 14.5%
UO-31
  growth at 10 µM: 60.9%
M14 [6]
  inhibition of growth at 10 µM: < 10%
T47D
  inhibition of growth at 10 µM: 13.3%
SW-620
  inhibition of growth at 10 µM: 33.1%
NCI-H322M
  inhibition of growth at 10 µM: 40.3%
M14 [7]
  growth at 10 µM: 94%
CCRF-CEM
  inhibition of growth at 10 µM: 72.6%
SF-268
  growth at 10 µM: 92.2%
Malme-3M [8]
  growth at 10 µM: 96.7%
SK-MEL-5 [9]
  inhibition of growth at 10 µM: 38.5%
HCT-116
  growth at 10 µM: 27.2%
RXF 393 [10]
  growth at 10 µM: 85.2%
SF-295
  growth at 10 µM: 44.6%
OVCAR-3
  inhibition of growth at 10 µM: 26.1%
K562
  growth at 10 µM: 45.2%
HOP-92
  growth at 10 µM: 43%
SNB-75 [11]
  inhibition of growth at 10 µM: 26.8%
HL-60(TB)
  inhibition of growth at 10 µM: 86%
[12]
  growth at 10 µM: 47.7%
MDA-MB-435
  growth at 10 µM: 95.3%
[13]
  growth at 10 µM: 54.5%
HCT-15
  inhibition of growth at 10 µM: 74.9%
SNB-75 [14]
  growth at 10 µM: 73.2%
COLO 205
  inhibition of growth at 10 µM: 31.9%
SK-MEL-2
  inhibition of growth at 10 µM: 13.5%
LOX IMVI [15]
  growth at 10 µM: 53.2%
A498
  growth at 10 µM: 100%
NCI-H460 [16]
  inhibition of growth at 10 µM: 49.7%
SR
  inhibition of growth at 10 µM: 29.8%
[17]
  growth at 10 µM: 62%
Malme-3M [18]
  inhibition of growth at 10 µM: < 10%
IGROV-1
  growth at 10 µM: 78.3%
OVCAR-4
  inhibition of growth at 10 µM: 29.3%
TK-10
  inhibition of growth at 10 µM: 20.1%
LOX IMVI [19]
  inhibition of growth at 10 µM: 46.8%
HOP-62
  growth at 10 µM: 53.7%
UACC-62
  growth at 10 µM: 67.2%
OVCAR-5
  inhibition of growth at 10 µM: < 10%
PC-3
  growth at 10 µM: 45.4%
RPMI-8226 [20]
  growth at 10 µM: 23.7%

— ChEMBL document CHEMBL2413072, “Synthesis and in vitro anticancer studies of novel C-2 arylidene congeners of lantadenes” (2013)
